Results taken from US8093209B2, “Methods of suppressing microglial activation and systemic inflammatory responses” (Cognosci, Incorporated, priority 2002, dated 2012).

Experiments:
LDL receptor = LDL receptor (Homo sapiens, UniProt P01130); settings: lipid-free peptide; cited from earlier work
[1] = test system: primary rat neuronal/glial cultures exposed to NMDA; assay: NMDA-induced 45Ca uptake by primary neuronal-glial cultures; assay type: cell-based; settings: 10 μM MK-801 pretreatment, 100 μM NMDA
Procedure: (§1) Primary neuronal-glial cultures were prepared from fetal Sprague-Dawley rat brains at 18 days of gestation as previously described (Pearlstein et al., 1998). Brains were harvested from 10-15 pups and dissected to separate cortex from meninges and subcortical structures using anatomical landmarks. Cortices were pooled and minced into 2 mm^3 pieces in a buffered salt solution supplemented with 20 mM HEPES buffer, pH 7.4, containing 0.25% trypsin. The tissue was incubated for 20 minutes at 37° C. in a 5% CO2/95% room air atmosphere, and washed twice with ice-cold, glutamine-free minimum essential medium (MEM; Life Technologies) containing 15 mM glucose, 5% fetal bovine serum (GIBCO), 5% horse serum (GIBCO), and 1% DNase-I (Sigma Chemical Co., St. Louis, Mo., USA). Tissue pieces were dissociated by trituration through a fire-polished 9-inch Pasteur pipette (I.D.=0.7 mm). The resultant suspension was centrifuged at 50×g for 10 min, the supernatant discarded, and the pellet resuspended in growth medium (MEM supplemented with 15 mM glucose, 5% fetal bovine serum, and 5% horse serum). The dissociated cells were plated to achieve a confluent monolayer using 4×10^5 cells per well in poly-D-lysine coated, 24-well culture plates (Falcon 3047; Becton Dickinson Co., Lincoln Park, N.J., USA). Cultures were maintained undisturbed at 37° C. in a humidified 5% CO2/95% room air atmosphere for 13-16 days prior to use.
Cellular calcium uptake from the extracellular space was assessed using ^45CaCl2 (American Radiolabeled Chemicals, St. Louis, Mo.). After washing the cultures with Mg^2+-free BSS containing 20 mM HEPES buffer, 6 μM peptide or 10 μM MK-801 was added to each well prior to and removed at the end of 100 μM NMDA exposure. ^45Ca (0.28 μCi/ml, 0.9 μCi/well) was added to each well immediately prior to NMDA exposure. The cultures were returned to the incubator and maintained at 37° C. Twenty minutes later, the exposure medium was removed and each well was washed 3 times with ice-cold Mg^2+-free BSS containing 20 mM HEPES buffer. The cells were subsequently lysed by addition of 0.2% sodium dodecyl sulfate (SDS). An aliquot from each well was added to a liquid scintillation vial containing 10 ml Cytoscint™ (ICN, Biochemical Research Product, CA) and radioactivity was determined by scintillation counting and normalized to cell count.

[2] = test system: thioglycollate-elicited peritoneal macrophages; assay: [Ca2+]i in Fura-2/AM treated single macrophages, digital imaging microscopy (Example 10); assay type: cell-based, mouse; settings: 1000-fold molar excess RAP, 10 mM NiCl2, or 1 μg/ml pertussis toxin 12 h
Procedure: (§2) Macrophage Harvesting. All experiments involving animals were first approved by the Duke Institutional Animal Care and Use Committee. Pathogen-free female C57BL/6 mice and ApoE deficient mice previously backcrossed 10 times to the C57BL/6 strain were obtained from the Jackson Laboratory (Bar Harbor, Me.). Thioglycollate-elicited peritoneal macrophages were harvested by peritoneal lavage using 10 ml of ice-cold Hanks' balanced salt solution containing 10 mM HEPES and 3.5 mM NaHCO3 (HHBSS), pH 7.4. The macrophages were pelleted by centrifugation at 4° C. at ˜800×g for 10 min and resuspended in RPMI 1640 media supplemented with 25 mM HEPES, 12.5 U/ml penicillin, 6.5 mg/ml streptomycin, and 5% fetal bovine serum.
Measurement of [Ca^2+]i in apoE and peptide treated macrophage. Changes in [Ca^2+]i levels in Fura-2/AM treated single cells were quantified using digital imaging microscopy in accordance with known techniques. Macrophages were plated on glass coverslips sitting in 35 mm Petri dishes at a density of 1.5×10^5 cells/cm^2, and allowed to adhere for 2 h in a humidified 5% CO2 incubator at 37° C. The non-adherent cells were aspirated and the monolayers were washed twice with HHBSS. 4 μM Fura-2/AM was incubated with the cells for thirty min in the dark at room temperature and [Ca^2+]i was subsequently measured using a digital imaging microscope in accordance with known techniques. […] To determine if signaling resulted from ligation of the ligand to LRP, cells were preincubated with a 1000-fold molar excess of RAP or 10 mM NiCl2, both of which inhibit ligand binding to LRP, for 5 min prior to stimulation with apoE or peptide. In experiments in which the involvement of a G protein was assessed, monolayers were incubated with 1 μg/ml pertussis toxin for 12 h at 37° C. and Ca^2+ measurements were made as stated above.

[3] = test system: primary rat neuronal/glial cultures exposed to NMDA; assay: NMDA-induced LDH release in primary neuronal-glial cultures; assay type: cell-based; settings: 6 μM peptide, 100 μM NMDA
Procedure: as §1
Mature cultures (13-16 days in vitro) were washed with Mg^2+-free buffered salt solution (BSS) containing 20 mM HEPES buffer (pH7.4) and 1.8 mM CaCl2, prior to the addition of NMDA. Following NMDA exposure, cultures were maintained for 30 minutes at 37° C. in a 5% CO2/95% air atmosphere. The medium containing NMDA was then removed and replaced with MEM supplemented with 20 mM glucose. The cultures were returned to the incubator for 24 h. In all experiments, cellular damage was assessed at 24 h after exposure to NMDA by measurement of the activity of lactate dehydrogenase (LDH) released into the medium as described below. The non-competitive NMDA receptor antagonist, MK-801 (Tocris Cookson Ins., St. Louis, Mo.) at a concentration of 10 μM was used as a positive control. Preliminary dose-response studies were performed to determine the concentration of NMDA (100 μM) required to effect a near-maximal LDH release (ED90) as used in the present study.
The effect of human recombinant apoE (Panverra, Madison, Wis.) on 100 μM NMDA-induced LDH release was assessed and the dose-response curve was obtained (apoE: 0.1-10 μM final concentration). ApoE3, the most common human isoform, was added to the cultures 30 minutes prior to and removed following NMDA exposure. The effect of apoE peptide (133-149) on NMDA (100 μM or 300 μM)-induced LDH release was next assessed and the dose-response curve was obtained in a separate set of sister cultures that were simultaneously treated under one of the following conditions: (1) various doses of peptide (0.3 μM, 1 μM, 3 μM, 6 μM, 10 μM final concentration) were added to the culture immediately prior to and removed at the end of NMDA exposure; (2) no peptide, NMDA exposure; (3) no peptide, no NMDA exposure; (4) no peptide, NMDA exposure with 10 μM MK-801 for 30 minutes. The effect of a scrambled control peptide on NMDA-induced LDH release was similarly assessed.
The effect of time of administration of apoE peptide (133-149) on NMDA-induced LDH release was assessed in a separate set of sister cultures that were simultaneously treated under one of following conditions: (1) peptide was added to the culture medium 24 h prior to and removed immediately before exposure to NMDA; (2) peptide was added immediately prior to and removed at the end of the NMDA exposure; (3) peptide was added immediately following the 30 minutes NMDA exposure; (4) no peptide, NMDA exposure; (5) no peptide, no NMDA exposure. […]

[4] = test system: enriched microglia primary cultures from apoE deficient mouse pups; assay: LPS-stimulated nitric oxide (nitrite) secretion by enriched microglia primary cultures; assay type: cell-based; settings: peptide dose of 2 mM, LPS 100 ng/ml
Procedure: Culture preparation and characterization: Mixed glial cell cultures were prepared from: (a) wildtype (C57B16; Jackson Laboratories) mouse pups; (b) ApoE deficient mutant mouse pups (ApoE-deficient mice), and (c) transgenic mouse pups expressing human ApoE3 but not murine ApoE (ApoE3 mice). See Xu et al., Neurobiol. Dis. 3:229 (1996) regarding the creation and characterization of the transgenic mice. Mixed glial cell cultures were prepared as has been described. See McMillian et al., Neurochem. 58:1308 (1992); Laskowitz et al., J. Neuroimmunol. 76:70 (1997). Briefly, brains were removed from 2-4 day old pups, cleaned of membranes and blood vessels, mechanically dispersed in Ca^+2-free media, and collected by centrifugation. Cells were then plated in DMEM/F12 (containing 10% fetal calf serum, 1% penicillin/streptomycin, Gibco #15070), one brain per 25 cm flask. […]
Nitrite Quantification The production of NO was assessed by measuring the accumulation of nitrite, which was quantified using a calorimetric reaction with Griess reagent (0.1% N-1-naphthylethylenediamine dihydrochloride, 1% sulfanilamide, and 2.5% H3PO4). Absorbance was measured at 570 nm by spectrophotometry. […]
Enriched microglia primary cultures were prepared from the brains of apoE deficient mouse pups as described in Example 1, above. […] Nitric oxide production was assessed as described in Example 1. […]

[5] = test system: thioglycollate-elicited peritoneal macrophages; assay: IP3 formation in myo-[2-3H]inositol-labeled macrophages (Example 10); assay type: cell-based, mouse; settings: pertussis toxin pretreatment
Procedure: as §2, with “serum. Cell viability was determined by the trypan blue exclusion method and was consistently greater then 95%.” for “serum.”
Measurement of IP3 in apoE treated macrophage and effect of pertussis toxin. The formation of IP3 in myo-[2-^3H]inositol-labeled macrophages under various experimental conditions was quantified in accordance with known techniques. Macrophage were plated in 6 well plates (4×10^6 cells/well) and allowed to adhere at 37° C. for 2 h in a humidified 5% CO2 incubator. Medium was aspirated from the monolayers and RPMI 1640 medium containing 0.25% BSA and myo-[2-^3H]inositol (specific activity 10-20 Ci/mmol) was added to each well. […] Radioactivity was determined by placing aliquots in a liquid scintillation counter to determine radioactivity. […] The effect on IP3 formation was measured as described above.

LDL receptor, sequence (P01130 22-860, species assumed): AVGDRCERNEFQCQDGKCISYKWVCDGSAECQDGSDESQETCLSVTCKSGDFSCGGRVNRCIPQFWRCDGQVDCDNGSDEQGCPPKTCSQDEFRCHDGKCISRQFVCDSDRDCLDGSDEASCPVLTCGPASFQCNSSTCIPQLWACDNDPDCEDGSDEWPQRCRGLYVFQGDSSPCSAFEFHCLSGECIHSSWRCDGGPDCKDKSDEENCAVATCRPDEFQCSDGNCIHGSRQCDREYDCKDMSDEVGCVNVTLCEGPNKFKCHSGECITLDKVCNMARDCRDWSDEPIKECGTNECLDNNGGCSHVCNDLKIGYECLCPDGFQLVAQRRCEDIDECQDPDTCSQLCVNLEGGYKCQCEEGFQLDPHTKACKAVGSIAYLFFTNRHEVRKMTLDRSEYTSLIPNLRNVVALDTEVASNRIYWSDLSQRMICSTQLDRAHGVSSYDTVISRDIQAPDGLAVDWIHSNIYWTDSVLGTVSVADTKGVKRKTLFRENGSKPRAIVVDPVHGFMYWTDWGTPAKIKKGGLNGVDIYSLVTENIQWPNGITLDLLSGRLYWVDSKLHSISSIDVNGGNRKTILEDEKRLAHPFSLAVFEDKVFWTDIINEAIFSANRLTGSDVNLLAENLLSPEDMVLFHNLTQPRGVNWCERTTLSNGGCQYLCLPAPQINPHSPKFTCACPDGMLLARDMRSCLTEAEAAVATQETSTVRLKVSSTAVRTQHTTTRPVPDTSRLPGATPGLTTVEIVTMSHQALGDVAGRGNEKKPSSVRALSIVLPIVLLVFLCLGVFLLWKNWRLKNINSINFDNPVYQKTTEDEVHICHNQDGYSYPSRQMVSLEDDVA

## 141-155 dimer: dimeric peptide of ApoE residues 141-155 (Dyer et al.)
LDL receptor
  LDL receptor binding: ~1 % of LDL activity

## 141-155 monomer: lipid-free synthetic peptide comprising residues 141-155 of ApoE (Dyer et al.) (LRKLRKRLLRDADDL; UniProt P02649 159-173, looked up, fragment)
LDL receptor
  LDL receptor binding activity: No binding activity was observed

## C[C@]12N[C@H](Cc3ccccc31)c1ccccc12 [MK-801, reference compound]
[1]
  NMDA-induced calcium influx: completely reversed

## [Cl][Ni][Cl] [Ni^+2, NiCl2, reference compound]
[2]
  effect of preincubation on apoE-induced [Ca2+]i increase: markedly attenuated the [Ca^2+]i increases

## ApoE (136-149): 14 amino acid peptide, three amino-terminal residues removed from ApoE (133-149) (Ac-RLASHLRKLRKRLL-NH2; listed as Homo sapiens)
[3]
  protection against NMDA-induced cell damage, truncated peptides: modest protection against NMDA toxicity

## ApoE (139-149): 11-residue peptide, six amino-terminal residues removed from ApoE (133-149) (Ac-SHLRKLRKRLL-NH2; listed as Homo sapiens)
[3]
  protection against NMDA-induced cell damage, truncated peptides: no detectable bioactivity

## LRKLRKRLL (fragment of ApoE containing LDL receptor binding site) [SEQ ID NO:2, 9-mer monomer, ApoE positions 141-149, used as control]
[4]
  nitric oxide secretion by activated microglia: did not result in any apparent decrease in nitric oxide secretion

## pertussis toxin [reference compound]
[2]
  effect of preincubation on apoE-induced [Ca2+]i increase: markedly attenuated the ApoE-dependent Ca^2+ response
[5]
  effect of pretreatment on apoE-induced IP3 increase: completely abolished this increase in IP3
